Test system: patients recently hospitalized for an Acute Coronary Syndrome (ACS)
Assay: dal-OUTCOMES phase III trial with pharmacogenomic (GWAS) analysis of cardiovascular events by ADCY9 genotype
Format: in vivo, human
Set-up: key to Predicted response: R: Responsive; PR: Partial Responsive; NR: Non Responsive
Experimental: The dalcetrapib mortality and morbidity trial (dal-OUTCOMES) was a double-blind, randomized, placebo-controlled, parallel group, multi-centre study in stable CHD patients recently hospitalized for acute coronary syndrome (ACS). The study was conducted to test the hypothesis that CETP inhibition will reduce the risk of recurrent cardiovascular events in patients with recent ACS by raising levels of HDL-C through CETP inhibition. Eligible patients entered a single-blind placebo run-in period of approximately 4 to 6 weeks to allow for patients to stabilize and for completion of planned revascularization procedures. At the end of the run-in period, eligible patients in stable condition were randomized in a 1:1 ratio to 600 mg of dalcetrapib or placebo on top of evidence-based medical care for ACS. Dalcetrapib is an inhibitor of cholesterol-ester transfer protein (CETP). […] The trial was interrupted in May 2012 by the DSMB on grounds of futility.
Dal-OUTCOMES trial (NC20971) was a double blind, randomized, placebo-controlled, parallel group, multi-center, phase III study to assess the safety and efficacy of the CETP inhibitor dalcetrapib in patients recently hospitalized for an Acute Coronary Syndrome (ACS). At time of the interim analysis the study included 15871 randomized patients, distributed over two treatment arms: placebo (7933 patients) and dalcetrapib (600 mg daily; 7938 patients). […] The dal-OUTCOMES study details can be found in G. Schwartz et al., N. Engl. J. Med. 367; 22, 2012.\
Whole genome analysis was performed in GLP-environment at the Beaulieu-Saucier Pharmacogenomics Centre. The Infinium® HumanOmni25Exome-8v1_A BeadChip (Illumina, San Diego, Calif.) including 2,567,845 genomic markers was used and processed according to the manufacturer's specifications. Approximately 200 ng of genomic DNA was whole-genome amplified, fragmented, and hybridized to locus-specific probes bound to the surface of each BeadChip. DNA was genotyped using a fluorescently labelled single base extension assay. BeadChips were scanned and analyzed using the Illumina® iScan Reader. Infinium® process controls were monitored and all results were within manufacturer's specifications. Scanned images were analyzed using Illumina's GenomeStudio® version 2011.1 with the GenTrain 2.0 cluster algorithm, using a No-Call threshold of 0.15, without manual cluster adjustment and using the manufacturer's Illumina® HumanOmni25Exome-8v1_A cluster file. […] Three genotyping files in PLINK format generated by GenomeStudio® were combined and transformed to binary PLINK format.
Genotyping completion rate for samples and SNPs was set to 98%. SNPs with genotyping plate bias (based on the 96 well plates used to dilute DNA samples) were flagged but not removed as the effect of genetic ancestry could not be excluded. Pairwise IBD was used to conduct close familial relationship checks. We flagged and removed all but one pair-member of related pairs and sample duplicates (IBS2*ratio>0.80) based on a selection of uncorrelated SNPs (r^2<0.1). The pairwise IBS matrix was used as a distance metric to identify cryptic relatedness among samples and sample outliers by multi-dimensional scaling (MDS). The first two MDS components of each subject were plotted including the genotypes of HapMap CEU, JPT-CHB, and YRI data (keeping only founder individuals). Outliers from the main Caucasian cluster were flagged and removed by k-nearest neighbour. (Supplementary FIG. 1) The scree plot and the cumulative explained variance were computed using the smartpca program of the EIGENSOFT suite (version 3.0). Options used were a numoutlieriter (maximum number of outlier removal iterations) of 0 (turned off) and altnormstyle (normalization formula) equal to NO. ^4 (Supplementary FIG. 2)
A statistical analysis plan was developed at the Beaulieu-Saucier Pharmacogenomics Centre and the final version approved prior to genotyping completion in October 2012. […]

Question: For `CCC(CC)CC1(C(=O)Nc2ccccc2SC(=O)C(C)C)CCCCC1` [dalcetrapib, thioisobutyric acid S-(2-{[1-(2-ethyl-butyl)-cyclohexanecarbonyl]-amino}-phenyl) ester], which Predicted response (rs8061182 genotype AA) is on record?
Answer: R

Question: What about the “HR for time to events, dalcetrapib treatment arm versus placebo arm” value (rs8061182 genotype AG) of the same compound?
Answer: 0.99

Question: What about the Predicted response (rs8061182 genotype AG) of the same compound?
Answer: PR

Question: And the “HR for time to events, dalcetrapib treatment arm versus placebo arm” value (rs8061182 genotype GG)?
Answer: 1.55

Question: What about the Predicted response (rs8061182 genotype GG) of the same compound?
Answer: NR

Question: What about the “HR (95% CI) for time to events, dalcetrapib treatment arm only, genotype comparison” value (shortened to “HR (95% CI) for time to events”) (rs11647828 AG vs AA) of the same compound?
Answer: 0.74 (0.6, 0.92)

Question: And the “HR (95% CI) for time to events” value (rs11647828 GG vs AA)?
Answer: 0.46 (0.33, 0.63)

Question: What about the “HR for time to events, dalcetrapib treatment arm versus placebo arm” value (rs11647828 genotype AA) of the same compound?
Answer: 1.33

Question: What about the Predicted response (rs11647828 genotype AA) of the same compound?
Answer: NR

Question: What about the “HR for time to events, dalcetrapib treatment arm versus placebo arm” value (rs11647828 genotype AG) of the same compound?
Answer: 0.97

Question: What about the Predicted response (rs11647828 genotype AG) of the same compound?
Answer: PR

Question: And the “HR for time to events, dalcetrapib treatment arm versus placebo arm” value (rs11647828 genotype GG)?
Answer: 0.61

Question: What about the Predicted response (rs11647828 genotype GG) of the same compound?
Answer: R

Question: And the “HR (95% CI) for time to events” value (rs12595857 AG vs AA)?
Answer: 0.7 (0.57, 0.87)

Question: What about the “HR (95% CI) for time to events” value (rs12595857 GG vs AA) of the same compound?
Answer: 0.45 (0.33, 0.62)

Question: And the “HR for time to events, dalcetrapib treatment arm versus placebo arm” value (rs12595857 genotype AA)?
Answer: 1.27

Question: What about the Predicted response (rs12595857 genotype AA) of the same compound?
Answer: NR

Question: And the “HR for time to events, dalcetrapib treatment arm versus placebo arm” value (rs12595857 genotype AG)?
Answer: 0.95

Question: And the Predicted response (rs12595857 genotype AG)?
Answer: PR

Question: What about the “HR for time to events, dalcetrapib treatment arm versus placebo arm” value (rs12595857 genotype GG) of the same compound?
Answer: 0.7

Question: What about the Predicted response (rs12595857 genotype GG) of the same compound?
Answer: R

Question: And the “HR (95% CI) for time to events” value (rs12935810 AA vs GG)?
Answer: 1.87 (1.42, 2.48)

Question: And the “HR (95% CI) for time to events” value (rs12935810 GA vs GG)?
Answer: 1.3 (1.02, 1.65)

Question: And the “HR for time to events, dalcetrapib treatment arm versus placebo arm” value (rs12935810 genotype AA)?
Answer: 1.28

Question: And the Predicted response (rs12935810 genotype AA)?
Answer: NR

Question: What about the “HR for time to events, dalcetrapib treatment arm versus placebo arm” value (rs12935810 genotype GA) of the same compound?
Answer: 1.03

Question: What about the Predicted response (rs12935810 genotype GA) of the same compound?
Answer: NR

Question: What about the “HR for time to events, dalcetrapib treatment arm versus placebo arm” value (rs12935810 genotype GG) of the same compound?
Answer: 0.79

Question: And the Predicted response (rs12935810 genotype GG)?
Answer: R

Question: What about the “HR (95% CI) for time to events” value (rs13337675 AG vs AA) of the same compound?
Answer: 0.84 (0.68, 1.03)

Question: What about the “HR (95% CI) for time to events” value (rs13337675 GG vs AA) of the same compound?
Answer: 0.7 (0.43, 1.14)

Question: And the “HR for time to events, dalcetrapib treatment arm versus placebo arm” value (rs13337675 genotype AA)?
Answer: 1.07

Question: What about the Predicted response (rs13337675 genotype AA) of the same compound?
Answer: NR

Question: What about the “HR for time to events, dalcetrapib treatment arm versus placebo arm” value (rs13337675 genotype AG) of the same compound?
Answer: 0.89

Question: What about the Predicted response (rs13337675 genotype AG) of the same compound?
Answer: PR

Question: What about the “HR for time to events, dalcetrapib treatment arm versus placebo arm” value (rs13337675 genotype GG) of the same compound?
Answer: 1.03

Question: And the Predicted response (rs13337675 genotype GG)?
Answer: PR

Question: What about the “HR (95% CI) for time to events” value (rs17136707 AG vs AA) of the same compound?
Answer: 0.62 (0.47, 0.81)

Question: And the “HR (95% CI) for time to events” value (rs17136707 GG vs AA)?
Answer: 0.16 (0.02, 1.15)

Question: What about the “HR for time to events, dalcetrapib treatment arm versus placebo arm” value (rs17136707 genotype AA) of the same compound?
Answer: 1.06

Question: What about the Predicted response (rs17136707 genotype AA) of the same compound?
Answer: NR

Question: What about the “HR for time to events, dalcetrapib treatment arm versus placebo arm” value (rs17136707 genotype AG) of the same compound?
Answer: 0.8

Question: What about the Predicted response (rs17136707 genotype AG) of the same compound?
Answer: PR

Question: What about the “HR for time to events, dalcetrapib treatment arm versus placebo arm” value (rs17136707 genotype GG) of the same compound?
Answer: 0.37

Question: What about the Predicted response (rs17136707 genotype GG) of the same compound?
Answer: R

Question: And the “HR (95% CI) for time to events” value (rs74702385 AA vs GG)?
Answer: 0.14 (0.02, 1)

Question: What about the “HR (95% CI) for time to events” value (rs74702385 GA vs GG) of the same compound?
Answer: 0.63 (0.48, 0.83)

Question: And the “HR for time to events, dalcetrapib treatment arm versus placebo arm” value (rs74702385 genotype AA)?
Answer: 0.26

Question: What about the Predicted response (rs74702385 genotype AA) of the same compound?
Answer: R

Question: What about the “HR for time to events, dalcetrapib treatment arm versus placebo arm” value (rs74702385 genotype GA) of the same compound?
Answer: 0.84

Question: And the Predicted response (rs74702385 genotype GA)?
Answer: R

Question: And the “HR for time to events, dalcetrapib treatment arm versus placebo arm” value (rs74702385 genotype GG)?
Answer: 1.05

Question: What about the Predicted response (rs74702385 genotype GG) of the same compound?
Answer: NR

Question: And the “HR (95% CI) for time to events” value (rs111590482 AG vs AA)?
Answer: 0.64 (0.49, 0.84)

Question: And the “HR (95% CI) for time to events” value (rs111590482 GG vs AA)?
Answer: 0.15 (0.02, 1.1)

Question: And the “HR for time to events, dalcetrapib treatment arm versus placebo arm” value (rs111590482 genotype AA)?
Answer: 1.04

Question: What about the Predicted response (rs111590482 genotype AA) of the same compound?
Answer: NR

Question: And the “HR for time to events, dalcetrapib treatment arm versus placebo arm” value (rs111590482 genotype AG)?
Answer: 0.85

Question: What about the Predicted response (rs111590482 genotype AG) of the same compound?
Answer: R

Question: What about the “HR for time to events, dalcetrapib treatment arm versus placebo arm” value (rs111590482 genotype GG) of the same compound?
Answer: 0.26

Question: And the Predicted response (rs111590482 genotype GG)?
Answer: R

— patent US11549142B2, “CETP inhibitors for therapeutic use” (Hoffmann-La Roche Inc., priority 2013, dated 2023)
